# Laboratory results reported in US20250228239A1, “MOLECULES HAVING PESTICIDAL UTILITY, AND INTERMEDIATES, COMPOSITIONS, AND PROCESSES, RELATED THERETO” (priority 2024, published 2025).
# Like-named read-outs stand apart in the source and are kept apart here.
# How the values were obtained:
# [1] = test system: Cabbage Looper (Trichoplusia ni, TRIPNI); assay: Bioassays on Cabbage Looper (CL), 128-well diet tray assay; assay type: in vivo; conditions: Trichoplusia ni
# Description: (§1) Certain molecules disclosed in this document were tested against BAW and CL using procedures described in the following examples. In the reporting of the results, the “BAW & CL Rating Table” was used (See Table Section).
# Bioassays on CL were conducted using a 128-well diet tray assay. One to five second instar CL larvae were placed in each well (3 mL) of the diet tray that had been previously filled with 1 mL of artificial diet to which 50 μg/cm^2 of the test molecule (dissolved in 50 μL of 90:10 acetone-water mixture) had been applied (to each of eight wells) and then allowed to dry. Trays were covered with a clear self-adhesive cover, vented to allow gas exchange, and held at 25° C., 14:10 light-dark for five to seven days. Percent mortality was recorded for the larvae in each well; activity in the eight wells was then averaged. The results are indicated in the table entitled “Table ABC: Biological Results” (See Table Section).
# [2] = test system: Beet Armyworm (Spodoptera exigua, LAPHEG); assay: Bioassays on Beet Armyworm (BAW), 128-well diet tray assay; assay type: in vivo; conditions: Spodoptera exigua
# Description: as §1
# Bioassays on BAW were conducted using a 128-well diet tray assay. One to five second instar BAW larvae were placed in each well (3 mL) of the diet tray that had been previously filled with 1 mL of artificial diet to which 50 μg/cm^2 of the test molecule (dissolved in 50 μL of 90:10 acetone-water mixture) had been applied (to each of eight wells) and then allowed to dry. Trays were covered with a clear self-adhesive cover, vented to allow gas exchange, and held at 25° C., 14:10 light-dark for five to seven days. Percent mortality was recorded for the larvae in each well; activity in the eight wells was then averaged. The results are indicated in the table entitled “Table ABC: Biological Results” (See Table Section).
# [3] = Table ABC: Biological Results, species CL, read-out: CL
# [4] = Table ABC: Biological Results, species BAW, read-out: BAW
# [5] = Cabbage Looper, rating class, read-out: CL
# [6] = Beet Armyworm, rating class, read-out: BAW
# [7] = Cabbage Looper, Table ABC / ABC-DP rating, read-out: CL rating
# [8] = Beet Armyworm, Table ABC / ABC-DP rating, read-out: BAW rating
Compound,"pest or weed control at 50 µg/cm2 [2, 4]","pest or weed control at 50 µg/cm2 [1, 5]","pest or weed control at 50 µg/cm2 [2, 6]",also measured
"Cc1ccc(CNc2ccc(NC(=O)c3cc(NC(=O)[C@H]4[C@H](c5cc(Cl)cc(Cl)c5)C4(Cl)Cl)ccc3Cl)c(C)c2)cc1 (relative stereo) [F1041, trans-2-Chloro-5-(2,2-dichloro-3-(3,5-dichlorophenyl)cyclopropane-1-carboxamido)-N-(2-methyl-4-((4-methylbenzyl)amino)phenyl)benzamide]",50 to 100%,–,–,"pest or weed control at 50 µg/cm2 [1, 3]: 50 to 100%"
"Cc1cc(NC(=O)[C@H]2[C@H](c3cc(Cl)c(Cl)c(Cl)c3)C2(Cl)Cl)cc(C(=O)Nc2ccc(F)c(NC(=O)C(F)F)c2F)c1Cl [F1486, 2-Chloro-5-((1R,3R)-2,2-dichloro-3-(3,4,5-trichlorophenyl)cyclopropane-1-carboxamido)-N-(3-(2,2-difluoroacetamido)-2,4-difluorophenyl)-3-methylbenzamide]",–,50 to 100%,50 to 100%,–
"O=C(Nc1ccc(F)c(NC(=O)C2CCCO2)c1F)c1cc(NC(=O)[C@H]2[C@H](c3cccc(C(F)(F)F)c3)C2(Cl)Cl)ccc1Cl (stereo partly drawn) [F1676, N-(3-(2-Chloro-5-((1R,3R)-2,2-dichloro-3-(3-(trifluoromethyl)phenyl)cyclopropane-1-carboxamido)benzamido)-2,6-difluorophenyl)tetrahydrofuran-2-carboxamide]",–,50 to 100%,50 to 100%,–
"Nc1c(F)ccc(NC(=O)c2cc(NC(=O)C3C(c4cc(F)cc(Br)c4F)C3(Cl)Cl)ccc2Cl)c1F (stereo not drawn) [F1097, cis-(3-Amino-2,4-difluorophenyl)-5-(3-(3-bromo-2,5-difluorophenyl)-2,2-dichlorocyclopropane-1-carboxamido)-2-chlorobenzamide]",50 to 100%,–,–,"pest or weed control at 50 µg/cm2 [1, 3]: 50 to 100%"
"O=C(Nc1ccc(F)c(NC(=O)C(F)(F)F)c1F)c1cc(NC(=O)[C@H]2[C@H](c3ccc(F)c(C(F)(F)F)c3)C2(Cl)Cl)cc(F)c1Cl [F1290, 2-Chloro-5-((1R,3R)-2,2-dichloro-3-(4-fluoro-3-(trifluoromethyl)phenyl)cyclopropane-1-carboxamido)-N-(2,4-difluoro-3-(2,2,2-trifluoroacetamido)phenyl)-3-fluorobenzamide]",50 to 100%,–,–,"pest or weed control at 50 µg/cm2 [1, 3]: 50 to 100%"
"CCNC(=O)c1cc(NC(=O)[C@H]2[C@H](c3ccc(F)c(Cl)c3)C2(Cl)Cl)cc(Cl)c1F (relative stereo) [F2047, trans-3-Chloro-5-(2,2-dichloro-3-(3-chloro-4-fluorophenyl)cyclopropane-1-carboxamido)-N-ethyl-2-fluorobenzamide]",–,–,–,"pest or weed control at 50 µg/cm2 [1, 7]: 50 to 100%; pest or weed control at 50 µg/cm2 [2, 8]: 50 to 100%"
"Cc1cc(NC(=O)[C@H]2[C@H](c3ccc(F)c(C(F)(F)F)c3)C2(Cl)Cl)cc(C(=O)Nc2cc(NC(=O)C(F)F)c(F)cc2F)c1Cl [F1500, 2-Chloro-5-((1R,3R)-2,2-dichloro-3-(4-fluoro-3-(trifluoromethyl)phenyl)cyclopropane-1-carboxamido)-N-(5-(2,2-difluoroacetamido)-2,4-difluorophenyl)-3-methylbenzamide]",–,50 to 100%,50 to 100%,–
"O=C(CC1CC1)NNC(=O)c1cc(NC(=O)[C@H]2[C@H](c3cc(Cl)cc(Cl)c3)C2(Cl)Cl)ccc1Cl (relative stereo) [F2528, trans-2,2-Dichloro-N-(4-chloro-3-(2-(2-cyclopropylacetyl)hydrazine-1-carbonyl)phenyl)-3-(3,5-dichlorophenyl)cyclopropane-1-carboxamide]",–,–,–,"pest or weed control at 50 µg/cm2 [1, 7]: 50 to 100%; pest or weed control at 50 µg/cm2 [2, 8]: 50 to 100%"
"CCNc1c(F)ccc(NC(=O)c2cc(NC(=O)[C@H]3[C@H](c4ccc(F)c(C(F)(F)F)c4)C3(Cl)Cl)ccc2Cl)c1F [F1762, 2-Chloro-5-((1R,3R)-2,2-dichloro-3-(4-fluoro-3-(trifluoromethyl)phenyl)cyclopropane-1-carboxamido)-N-(3-(ethylamino)-2,4-difluorophenyl)benzamide]",–,50 to 100%,50 to 100%,–
"N#CCC(=O)Nc1c(F)ccc(NC(=O)c2cc(NC(=O)[C@H]3[C@H](c4cc(Cl)c(Cl)c(Cl)c4)C3(Cl)Cl)ccc2Cl)c1F [F1650, 2-Chloro-N-(3-(2-cyanoacetamido)-2,4-difluorophenyl)-5-((1R,3R)-2,2-dichloro-3-(3,4,5-trichlorophenyl)cyclopropane-1-carboxamido)benzamide]",–,50 to 100%,50 to 100%,–
"O=C(COCC(F)(F)F)Nc1c(F)ccc(NC(=O)c2cc(NC(=O)[C@H]3[C@H](c4ccc(F)c(Cl)c4)C3(Cl)Cl)ccc2Cl)c1F [F1867, 2-Chloro-5-((1R,3R)-2,2-dichloro-3-(3-chloro-4-fluorophenyl)cyclopropane-1-carboxamido)-N-(2,4-difluoro-3-(2-(2,2,2-trifluoroethoxy)acetamido)phenyl) benzamide]",–,–,–,"pest or weed control at 50 µg/cm2 [1, 7]: 50 to 100%; pest or weed control at 50 µg/cm2 [2, 8]: 50 to 100%"
"O=C(Nc1c(F)ccc(NC(=O)C(F)(F)Br)c1F)c1cc(NC(=O)[C@H]2[C@H](c3ccc(F)c(C(F)(F)F)c3)C2(Cl)Cl)cc(F)c1Cl [F1356, N-(3-(2-Bromo-2,2-difluoroacetamido)-2,6-difluorophenyl)-2-chloro-5-((1R,3R)-2,2-dichloro-3-(4-fluoro-3-(trifluoromethyl)phenyl)cyclopropane-1-carboxamido)-3-fluorobenzamide]",50 to 100%,–,–,"pest or weed control at 50 µg/cm2 [1, 3]: 50 to 100%"
"CCCC(=O)Nc1c(F)ccc(NC(=O)c2cc(NC(=O)[C@H]3[C@H](c4ccc(Cl)c(C(F)(F)F)c4)C3(Cl)Cl)ccc2Cl)c1F [F1659, N-(3-Butyramido-2,4-difluorophenyl)-2-chloro-5-((1R,3R)-2,2-dichloro-3-(4-chloro-3-(trifluoromethyl)phenyl)cyclopropane-1-carboxamido)benzamide]",–,50 to 100%,50 to 100%,–
"CC(C)NC(=O)NNC(=O)c1cc(NC(=O)[C@H]2[C@H](c3cc(Cl)cc(Cl)c3)C2(Cl)Cl)ccc1Cl (relative stereo) [F2536, trans-2-(2-Chloro-5-(2,2-dichloro-3-(3,5-dichlorophenyl)cyclopropane-1-carboxamido)benzoyl)-N-isopropylhydrazine-1-carboxamide]",–,–,–,"pest or weed control at 50 µg/cm2 [1, 7]: 50 to 100%; pest or weed control at 50 µg/cm2 [2, 8]: 50 to 100%"
"Cc1cc(NC(=O)[C@H]2[C@H](c3ccc(F)c(Cl)c3)C2(Cl)Cl)cc(C(=O)Nc2ccc(F)c(N(C(=O)OC(C)(C)C)C(=O)OC(C)(C)C)c2F)c1F (relative stereo) [F1138, trans-tert-Butyl-N-tert-butoxycarbonyl-N-[3-[[5-[[2,2-dichloro-3-(3-chloro-4-fluorophenyl)cyclopropanecarbonyl]amino]-2-fluoro-3-methylbenzoyl]amino]-2,6-difluorophenyl]carbamate]",0 to 50%,–,–,–
"Cc1c(F)c(NC(=O)c2cc(NC(=O)[C@H]3[C@H](c4ccc(F)c(C(F)(F)F)c4)C3(Cl)Cl)ccc2Cl)cc(N(C(=O)OC(C)(C)C)C(=O)OC(C)(C)C)c1F [F1670, tert-Butyl N-tert-butoxycarbonyl-N-[5-[[2-chloro-5-[[(1R,3R)-2,2-dichloro-3-[4-fluoro-3-(trifluoromethyl)phenyl]cyclopropanecarbonyl]amino]benzoyl]amino]-2,4-difluoro-3-methyl-phenyl]carbamate]",–,–,0 to 50%,–
